Results: patent US12303523B2, “Method for treating dupuytren's disease” (Dale Biotech, LLC, priority 2019, dated 2025)
≈ marks a conversion by molar mass, not a printed value.

How the values were obtained:
physchem = type: physicochemical
Protocol: Niclosamide ethanolamine salt (niclosamide) was dissolved and titrated (2-fold) in methanol to generate standard curves. The linear range of niclosamide quantification using UV spectrometry (333 nm) was established to be 0.006-0.1 mM. A suspension of niclosamide was prepared in H2O at a concentration of 32.7 mg/ml (100 mM) by vigorous vortexing. A stock solution of rhamnolipids were prepared in H2O at a concentration of 400 mg/ml and diluted appropriately prior to the addition of niclosamide in the presence or absence of 20% glycerol. Niclosamide was added to a final concentration of 10 mM. The solutions were vortexed vigorously, warmed at 37° C. for 5 minutes, vortexed vigorously, and then centrifuged at 17,000 RCF for 5 minutes to remove any large particulates. The supernatant of each sample was assayed for soluble niclosamide by diluting 1:10 to 1:100 in methanol and comparing to a niclosamide standard curve.

[1] = cited from earlier work
NF-κB = conditions: in vitro experiments; cited from earlier work
STAT3 = STAT3 (Homo sapiens, UniProt P40763); conditions: Ren X, et al. ACS Med Chem Lett., 2010; cited from earlier work
Sequence of STAT3 (P40763 whole entry, species assumed): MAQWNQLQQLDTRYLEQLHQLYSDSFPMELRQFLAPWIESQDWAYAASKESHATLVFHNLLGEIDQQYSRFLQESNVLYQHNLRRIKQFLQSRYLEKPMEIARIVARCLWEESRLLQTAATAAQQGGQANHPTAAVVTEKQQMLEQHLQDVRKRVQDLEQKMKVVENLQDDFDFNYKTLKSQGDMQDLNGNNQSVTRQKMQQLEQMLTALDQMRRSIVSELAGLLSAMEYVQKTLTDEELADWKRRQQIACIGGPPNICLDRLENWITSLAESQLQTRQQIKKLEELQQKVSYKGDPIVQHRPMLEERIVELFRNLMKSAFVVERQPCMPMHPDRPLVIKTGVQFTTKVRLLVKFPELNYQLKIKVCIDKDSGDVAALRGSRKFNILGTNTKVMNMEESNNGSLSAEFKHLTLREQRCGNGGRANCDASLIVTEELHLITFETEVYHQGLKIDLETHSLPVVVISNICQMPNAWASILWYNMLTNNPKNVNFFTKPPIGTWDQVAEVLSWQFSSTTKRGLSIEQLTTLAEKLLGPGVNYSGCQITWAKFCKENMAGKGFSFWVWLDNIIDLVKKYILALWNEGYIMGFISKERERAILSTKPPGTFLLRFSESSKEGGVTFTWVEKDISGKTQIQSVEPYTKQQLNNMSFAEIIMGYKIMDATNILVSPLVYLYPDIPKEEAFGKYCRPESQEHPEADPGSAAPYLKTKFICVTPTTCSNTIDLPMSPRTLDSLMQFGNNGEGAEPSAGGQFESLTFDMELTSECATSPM

solubility at 5 min (physchem; 37 °C, water, thermodynamic from solid, Soluble Niclosamide mM, ±SD)	increase of solubility (physchem; 5 min)	Structure (SMILES)	solubility in distilled water ([1]; distilled water, 20° C.)	inhibition of NF-κB transcription, DNA binding, TNF-induced IκBα phosphorylation, p65 translocation, downstream gene expression (NF-κB)	solubility in DMSO ([1]; DMSO)	solubility in ethanol ([1]; ethanol)	solubility in organic solvents ([1]; ether, ethanol, chloroform, acetone and DMSO)	water solubility ([1]; water, 20° C.)	inhibition of activation and transcriptional function of STAT3 (STAT3)
1.06 ± 0.053 mM (≈ 347 µg/mL)		O=C(Nc1ccc([N+](=O)[O-])cc1Cl)c1cc(Cl)ccc1O [Niclosamide ethanolamine, niclosamide ethanolamine]	0.18 to 0.28 mg/mL						
	more than 3 fold	O=C(Nc1ccc([N+](=O)[O-])cc1Cl)c1cc(Cl)ccc1O [Niclosamide]		inhibits	up to 10 mM	22 mM (≈ 7200 µg/mL)	sparingly soluble	5 to 8 µg/mL	potently inhibits
